By IC50 is commonly meant the midpoint of a concentration-inhibition curve.

Counter-ions that a name gives are not always drawn.

The target of the assay is T1, hTRPA1 (Homo sapiens, UniProt O75762).
T1 construct: host or cells: CHO-K1 Tet-On, Clone 20 (Chinese Hamster Ovary cells, inducible expression)
T1 sequence (O75762 whole entry): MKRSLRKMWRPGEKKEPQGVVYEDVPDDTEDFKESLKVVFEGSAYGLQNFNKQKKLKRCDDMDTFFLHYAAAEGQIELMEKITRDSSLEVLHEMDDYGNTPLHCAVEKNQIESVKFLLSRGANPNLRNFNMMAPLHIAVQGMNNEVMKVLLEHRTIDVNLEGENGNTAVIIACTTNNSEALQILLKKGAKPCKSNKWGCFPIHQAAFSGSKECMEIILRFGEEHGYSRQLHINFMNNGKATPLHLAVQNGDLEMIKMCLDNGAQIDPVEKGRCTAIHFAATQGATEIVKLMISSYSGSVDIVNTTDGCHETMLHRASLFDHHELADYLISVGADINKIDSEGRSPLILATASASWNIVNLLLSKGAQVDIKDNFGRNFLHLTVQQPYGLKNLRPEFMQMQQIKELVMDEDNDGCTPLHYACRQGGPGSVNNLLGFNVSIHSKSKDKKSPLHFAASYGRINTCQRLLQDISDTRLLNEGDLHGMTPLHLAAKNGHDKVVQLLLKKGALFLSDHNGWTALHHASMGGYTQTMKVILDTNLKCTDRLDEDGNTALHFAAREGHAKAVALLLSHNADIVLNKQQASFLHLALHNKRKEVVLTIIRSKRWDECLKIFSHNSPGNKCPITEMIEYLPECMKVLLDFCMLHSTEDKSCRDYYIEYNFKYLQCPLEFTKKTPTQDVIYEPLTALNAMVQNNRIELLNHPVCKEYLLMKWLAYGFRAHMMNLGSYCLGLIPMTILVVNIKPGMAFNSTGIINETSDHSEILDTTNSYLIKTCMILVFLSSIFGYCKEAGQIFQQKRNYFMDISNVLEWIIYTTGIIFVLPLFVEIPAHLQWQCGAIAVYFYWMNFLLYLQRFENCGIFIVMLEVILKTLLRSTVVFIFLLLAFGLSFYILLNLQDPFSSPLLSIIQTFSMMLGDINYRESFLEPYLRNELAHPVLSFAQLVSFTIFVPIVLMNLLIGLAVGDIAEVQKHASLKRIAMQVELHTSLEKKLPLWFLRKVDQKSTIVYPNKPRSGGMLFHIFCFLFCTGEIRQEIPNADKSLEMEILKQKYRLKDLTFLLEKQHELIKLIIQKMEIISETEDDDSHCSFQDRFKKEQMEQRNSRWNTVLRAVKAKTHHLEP
Kind of assay: IC50 determination, dose response calcium flux (FLIPR) assay, ChanTest hTRPA1-CHO stably transfected cell line. As to conditions: CHO-K1 Tet-On hTRPA1 cells, 30' preincubation, agonist cinnamaldehyde final 100 uM. Format: cell-based. How it is done: IC50 Determination of Exemplified Compounds Dose Response Assay: ChanTest hTRPA1-CHO Stably Transfected Cell Line
CHO-K1 Tet-On_HOMSA_TRPA1_Clone—20
Growth Media for CHO-K1 Tet-On_HOMSA_TRPA1_Clone—20 • Ham's F-12 with 10% tetracycline-free FBS • 1× penicillin-streptomycin • 1× glutamax • 0.01 mg/ml Blasticidin • 0.40 mg/ml Zeocin • The cell line doubling rate was ˜15 hours. […] Experiments were run at 24 hours post induction.
Plating Conditions CHOK1/TRPA1 Cells: • Harvested cells with 0.025% trypsin/EDTA. • Resuspended cells in growth media without selection antibiotics. • Measured cell density and diluted to 2.4×10^5 cells/ml in media containing 1 ug/ml Doxycycline Plate 25 ul/well into 384 well black/clear tissue culture-treated plates. • Incubated overnight at 37° C.
Reagents: • Replacement Buffer: Hank's Balanced Salt Solution, 20 mM HEPES along with 0.005% BSA and 2× Probenecid • Dye Loading Buffer: Cal-3 NW Calcium dye was prepared by dissolving the contents of one vial with […] Hank's Balanced Salt Solution containing 20 mM HEPES. • Control compounds for CHOK1/TRPA1 cells: AP-18, stock 10 mM, prepare 3.5× compound dilution in a Compound Buffer (HBSS/20 mM HEPES/0.005% BSA)—final concentration 10 uM.
Preparation of Cinnamaldehyde (Agonist Addition):
• Specific gravity=1.046 gm/cc • 1.32 gm/1.046 gm/cc=1.26 ml of stock • Add 1.74 ml DMSO=3.3 M stock • Working solution 4.5× (final 100 uM in Compound Buffer: HBSS/20 mM HEPES/0.005% BSA)
Compounds dilutions were prepared from 5 or 10 mM stock (100% DMSO): • Adjustments of volumes and concentrations were made at time of titration to reflect desired final assay concentrations. • Compounds were tested at either 20 μM three folds dilution 11 steps out or 30 μM two folds dilution 11 steps out. • 3 μl of diluted compound were transferred into Weidmann 384-well plate in duplicates side-by-side.
Compound plates were resuspended with 100 ul of HBSS/20 mM HEPES/0.005% BSA buffer (Compound Buffer):
Growth media was removed from the cell plates (20 ul) and 20 ul of the Replacement Buffer was added followed by addition of 25 ul of diluted dye. All three steps were performed using a Plate Washer BioTek 407. The plates were then incubated for 30′ at RT.
After incubation, both the cell and compound plates were brought to the FLIPR and 20 ul of the diluted compounds/antagonist/bk were transferred to the cell plates by the FLIPR. Plates were then incubated for 30′ at room temperature. After 30′ incubation, plates were returned to the FLIPR and 20 ul of 4.5× Cinnamaldehyde was added to the cell plates. During the compound addition as well as agonist addition, fluorescence readings were taken simultaneously from all 384 wells of the cell plate every 1.5 seconds. Five readings were taken to establish a stable baseline, then 20 ul of sample was rapidly (30 ul/sec) and simultaneously added to each well of the cell plate. The fluorescence was continuously monitored before, during and after sample/agonist addition for a total elapsed time of 100 seconds (compound addition) and 120 seconds (agonist addition). Responses (increase in peak fluorescence) in each well following agonist addition was determined. The initial fluorescence reading from each well, prior to ligand stimulation, was used a zero baseline value for the data from that well.
For orientation: Calcium flux is commonly read through the fluorescence of an indicator in the cells.
Take `COc1ccc(CC2CCCN(C[C@H](OC(=O)Nc3ccc(Cl)cc3)C(F)(F)F)C2)cc1` (stereo partly drawn) [Example 20, (4-Chlorophenyl)-carbamic acid 2,2,2-trifluoro-1-[3-(4-methoxybenzyl)-piperidin-1-ylmethyl]-ethyl ester]: the IC50 was determined as 165 nM.

With `COc1cc(OC)cc(C2CCCN(C[C@H](OC(=O)Nc3ccc(Cl)cc3)C(F)(F)F)C2)c1` (stereo partly drawn) [Example 21, (4-Chlorophenyl)-carbamic acid (S)-1-[3-(3,5-dimethoxyphenyl)-piperidin-1-ylmethyl]-2,2,2-trifluoroethyl ester], the IC50 is 203 nM.

`O=C(Nc1ccc(Cl)cc1)O[C@@H](CN1CCC[C@H](c2cc(C(F)(F)F)cc(C(F)(F)F)c2)C1)C(F)(F)F` [Example 23, (4-Chlorophenyl)-carbamic acid (S)-1-[(R)-3-(3,5-bis-trifluoromethylphenyl)-piperidin-1ylmethyl]-2,2,2-trifluoroethyl ester]: the IC50 came to 21.5 nM.

In the case of `O=C(Nc1ccc(Cl)cc1)OC(CN1CCCC(c2ccccc2)CC1)C(F)(F)F` (stereo not drawn) [Example 27, (4-Chlorophenyl)-carbamic acid 2,2,2-trifluoro-1-(4-phenyl-azepan-1-ylmethyl)-ethyl ester], the IC50 worked out at 2260 nM.

For the compound `O=C(Nc1ccc(Cl)cc1)O[C@@H](CN1CCCC(c2cccc(C(F)(F)F)c2)C1)C(F)(F)F` (stereo partly drawn) [Example 29, (4-Chlorophenyl)-carbamic acid (S)-2,2,2-trifluoro-1-[3-(3-trifluoromethylphenyl)-piperidin-1-ylmethyl]-ethyl ester hydrochloride], the half-inhibitory concentration (IC50) is 35.4 nM.

Turning to `COc1cc(C2CCCN(C[C@H](OC(=O)Nc3ccc(Cl)cc3)C(F)(F)F)C2)ccc1F` (stereo partly drawn) [Example 31, (4-Chlorophenyl)-carbamic acid (S)-2,2,2-trifluoro-1-[3-(4-fluoro-3-methoxyphenyl)-piperidin-1-ylmethyl]-ethyl ester hydrochloride], the half-inhibitory concentration (IC50) worked out at 168 nM.

Consider `COc1cc([C@H]2CCCN(C[C@H](OC(=O)Nc3ccc(Cl)cc3)C(F)(F)F)C2)ccc1F` [Example 32, (4-Chloro-phenyl)-carbamic acid (S)-2,2,2-trifluoro-1-[(R)-3-(4-fluoro-3-methoxy-phenyl)-piperidin-1-ylmethyl]-ethyl ester hydrochloride], for which the half-inhibitory concentration (IC50) was determined as 113 nM.

On to `O=C(Nc1ccc(Cl)cc1)O[C@@H](CN1CCC(F)(F)CC1)C(F)(F)F` [Example 33, (4-Chlorophenyl)-carbamic acid (S)-1-(4,4-difluoropiperidin-1-ylmethyl)-2,2,2-trifluoroethyl ester hydrochloride], for which the half-inhibitory concentration (IC50) was determined as 78.3 nM.

For the compound `COCCOc1cc(C2CCCN(C[C@H](OC(=O)Nc3ccc(Cl)cc3)C(F)(F)F)C2)ccc1F` (stereo partly drawn) [Example 34, (4-Chlorophenyl)-carbamic acid (S)-2,2,2-trifluoro-1-{3-[4-fluoro-3-(2-methoxyethoxy)-phenyl]-piperidin-1-ylmethyl}-ethyl ester], the IC50 was 339 nM.

On to `COCCOc1cc([C@H]2CCCN(C[C@H](OC(=O)Nc3ccc(Cl)cc3)C(F)(F)F)C2)ccc1F` [Example 35, (4-Chlorophenyl)-carbamic acid (S)-2,2,2-trifluoro-1-{(R)-3-[4-fluoro-3-(2-methoxyethoxy)-phenyl]-piperidin-1-ylmethyl}-ethyl ester hydrochloride], for which the IC50 amounted to 334 nM.

Take `O=C(Nc1ccc(Cl)cc1)OC(CN1CCCC(c2ccccc2)C1)C(F)(F)F` (stereo not drawn) [Example 36, (4-Chlorophenyl)-carbamic acid 2,2,2-trifluoro-1-(3-phenylpiperidin-1-ylmethyl)-ethyl ester hydrochloride]: the half-maximal inhibitory concentration (IC50) was determined as 625 nM.

Regarding `O=C(Nc1ccc(Cl)cc1)OC(CN1CCCC(c2ccc(Cl)cc2)C1)C(F)(F)F` (stereo not drawn) [Example 37, (4-Chlorophenyl)-carbamic acid 1-[3-(4-chlorophenyl)-piperidin-1-ylmethyl]-2,2,2-trifluoro ethyl ester], the IC50 was found to be 522 nM.

As for `COc1ccc(C2CCCN(C[C@H](OC(=O)Nc3ccc(Cl)cc3)C(F)(F)F)C2)cc1` (stereo partly drawn) [Example 38, (4-Chlorophenyl)-carbamic acid (S)-2,2,2-trifluoro-1-[3-(4-methoxyphenyl)-piperidin-1-ylmethyl]-ethyl ester], the concentration for half-maximal inhibition (IC50) was 622 nM.

For `O=C(Nc1ccc(Cl)cc1)O[C@@H](CN1CCCC(C(=O)c2ccccc2)C1)C(F)(F)F` (stereo partly drawn) [Example 39, (4-Chlorophenyl)-carbamic acid (S)-1-(3-benzoylpiperidin-1-ylmethyl)-2,2,2-trifluoroethyl ester hydrochloride], the IC50 is 865 nM.

As for `O=C(Nc1ccc(Cl)cc1)O[C@@H](CN1CCCC(Oc2ccccc2)C1)C(F)(F)F` (stereo partly drawn) [Example 40, (4-Chlorophenyl)-carbamic acid (S)-2,2,2-trifluoro-1-(3-phenoxypiperidin-1-ylmethyl)-ethyl ester hydrochloride], the IC50 was 191 nM.

As to `O=C(Nc1ccc(Cl)cc1)O[C@@H](CN1CCCC(c2cccc(F)c2)C1)C(F)(F)F` (stereo partly drawn) [Example 41, (4-Chlorophenyl)-carbamic acid (S)-2,2,2-trifluoro-1-[3-(3-fluorophenyl)-piperidin-1-ylmethyl]-ethyl ester hydrochloride], the IC50 was found to be 320 nM.

In the case of `O=C(Nc1ccc(Cl)cc1)O[C@@H](CN1CCCC(c2ccc(F)cc2)C1)C(F)(F)F` (stereo partly drawn) [Example 42, (4-Chlorophenyl)-carbamic acid (S)-2,2,2-trifluoro-1-[3-(4-fluorophenyl)-piperidin-1-ylmethyl]-ethyl ester hydrochloride], the concentration for half-maximal inhibition (IC50) came to 444 nM.

Take `CCOc1cccc(C2CCCN(C[C@H](OC(=O)Nc3ccc(Cl)cc3)C(F)(F)F)C2)c1` (stereo partly drawn) [Example 43, (4-Chlorophenyl)-carbamic acid (S)-1-[3-(3-ethoxyphenyl)-piperidin-1-ylmethyl]-2,2,2-trifluoroethyl ester hydrochloride]: the 50% inhibitory concentration (IC50) stood at 298 nM.

As to `O=C(Nc1ccc(Cl)cc1)O[C@@H](CN1CCCC(Sc2ccccc2)C1)C(F)(F)F` (stereo partly drawn) [Example 44, (4-Chlorophenyl)-carbamic acid (S)-2,2,2-trifluoro-1-(3-phenylsulfanyl-piperidin-1-ylmethyl)-ethyl ester hydrochloride], the concentration for half-maximal inhibition (IC50) was 172 nM.

For `O=C(Nc1ccc(Cl)cc1)O[C@@H](CN1CCCC(Oc2ccc(Cl)cc2)C1)C(F)(F)F` (stereo partly drawn) [Example 45, (4-Chlorophenyl)-carbamic acid (S)-1-[3-(4-chlorophenoxy)-piperidin-1-ylmethyl]-2,2,2-trifluoroethyl ester hydrochloride], the IC50 came out at 139 nM.

With `N#Cc1ccc(OC2CCCN(C[C@H](OC(=O)Nc3ccc(Cl)cc3)C(F)(F)F)C2)cc1` (stereo partly drawn) [Example 46, (4-Chlorophenyl)-carbamic acid (S)-1-[3-(4-cyanophenoxy)-piperidin-1-ylmethyl]-2,2,2-trifluoroethyl ester hydrochloride], the half-maximal inhibitory concentration (IC50) was found to be 411 nM.

In the case of `N#Cc1cccc(OC2CCCN(C[C@H](OC(=O)Nc3ccc(Cl)cc3)C(F)(F)F)C2)c1` (stereo partly drawn) [Example 47, (4-Chlorophenyl)-carbamic acid (S)-1-[3-(3-cyanophenoxy)-piperidin-1-ylmethyl]-2,2,2-trifluoroethyl ester hydrochloride], the IC50 worked out at 219 nM.

As to `O=C(Nc1ccc(Cl)cc1)O[C@@H](CN1CCCC(Oc2ccc(F)cc2)C1)C(F)(F)F` (stereo partly drawn) [Example 48, (4-Chlorophenyl)-carbamic acid (S)-1-[3-(4-fluorophenoxy)-piperidin-1-ylmethyl]-2,2,2-trifluoroethyl ester hydrochloride], the IC50 was determined as 147 nM.

Turning to `COc1cccc(OC2CCCN(C[C@H](OC(=O)Nc3ccc(Cl)cc3)C(F)(F)F)C2)c1` (stereo partly drawn) [Example 49, (4-Chlorophenyl)-carbamic acid (S)-1-[3-(3-methoxyphenoxy)-piperidin-1-ylmethyl]-2,2,2-trifluoroethyl ester hydrochloride], the IC50 turned out to be 408 nM.

Values taken from US20150218141A1, “SUBSTITUTED CARBAMATE COMPOUNDS” (HOFFMANN-LA ROCHE INC, priority 2012, published 2015).
